{"source": "paper PMC10757720", "about": "“Impact of CRAMP-34 on Pseudomonas aeruginosa biofilms and extracellular metabolites” (Frontiers in Cellular and Infection Microbiology, 2023)", "key": {"PAO1": {"tested_on": "PAO1", "test": "microbe, parasite or virus in culture", "assay_type": "cell-based, Pseudomonas aeruginosa", "excerpt": "Supplement DataSheet_1.docx, table 1: Table S1 Minimum inhibitory concentrations of various drugs against PAO1 | column: MIC(μg/mL)"}, "[1]": {"tested_on": "PAO1 planktonic and dispersed bacteria", "test": "Inducible resistance, multi-step induction over 25 generations", "assay_type": "cell-based, Pseudomonas aeruginosa", "conditions": "for increase in the MIC value after induction: 25 continuous generations, induction with the agent alone at 1/4 MIC, consistent across planktonic and dispersed bacteria; for MIC values after co-induction with CRAMP-34: antibiotic at 1/4 MIC combined with CRAMP-34 at 1/4 MIC, 25 generations, vs antibiotic alone, planktonic and dispersed bacteria", "procedure": "Bacterial resistance was induced in vitro using a modified multi-step method ([Zhu et al., 2017]). The method of obtaining dispersed bacteria was described previously ([Zhang et al., 2022]). Planktonic bacteria and biofilm dispersion bacteria were induced at the initial 1/4 MIC concentration of antimicrobial agents every 24 hours. The latest MIC was measured every 2 generations and the drug concentration was changed according to the latest results."}, "PAO1 preformed biofilms": {"tested_on": "PAO1 preformed biofilms", "test": "Effect of exogenous glutamate and succinate on PAO1 preformed biofilm biomass", "conditions": "preformed 96-h-old biofilms, different concentrations, 37°C, 24 h; certain dose-dependent effect (one way ANOVA)"}, "surface-attached biofilm": {"tested_on": "surface-attached biofilm", "conditions": "exogenous addition of succinate and glutamate; ref Sauer et al., 2004; cited from earlier work"}, "[2]": {"conditions": "Pseudomonas aeruginosa, read-out: MIC"}}, "note": "Read-outs that look alike come from different tables or passages of the source. Positions of bridges follow the written chain, without caps; N, C: chain ends. Non-standard residues stand in square brackets, D forms with d. Residues, ends and D or L forms follow the SMILES beside them. No end group written: not given here. *: point of attachment. X1 = CC[C@H](C)CCCCC(=O)*; Dab = NCC[C@H](N)C(=O)O", "data": [{"molecule": "NCC[C@H](O)C(=O)N[C@@H]1C[C@H](N)[C@@H](O[C@H]2O[C@H](CN)[C@@H](O)[C@H](O)[C@H]2O)[C@H](O)[C@H]1O[C@H]1O[C@H](CO)[C@@H](O)[C@H](N)[C@H]1O", "note": "[Amikacin]", "values": [{"measurement": "MIC", "setting": "PAO1; [2]", "result": 0.25, "unit": "µg/mL"}]}, {"molecule": "CC[C@H]1OC(=O)[C@H](C)[C@@H](O[C@H]2C[C@@](C)(OC)[C@@H](O)[C@H](C)O2)[C@H](C)[C@@H](O[C@@H]2O[C@H](C)C[C@H](N(C)C)[C@H]2O)[C@](C)(O)C[C@@H](C)CN(C)[C@H](C)[C@@H](O)[C@]1(C)O", "note": "[Azithromycin]", "values": [{"measurement": "MIC", "setting": "PAO1; [2]", "result": 16, "unit": "µg/mL"}]}, {"molecule": "CCN1CCN(C(=O)N[C@@H](C(=O)N[C@@H]2C(=O)N3C(C(=O)O)=C(CSc4nnnn4C)CS[C@H]23)c2ccc(O)cc2)C(=O)C1=O", "note": "[Cefoperazone]", "values": [{"measurement": "MIC", "setting": "PAO1; [2]", "result": 4, "unit": "µg/mL"}]}, {"molecule": "CO/N=C(\\C(=O)N[C@@H]1C(=O)N2C(C(=O)[O-])=C(C[n+]3cccc4c3CCCC4)CS[C@H]12)c1csc(N)n1.O=S(=O)(O)O", "note": "[Cefoquinol]", "values": [{"measurement": "MIC", "setting": "PAO1", "result": 2, "unit": "µg/mL"}]}, {"molecule": "CC(C)(O/N=C(\\C(=O)N[C@@H]1C(=O)N2C(C(=O)[O-])=C(C[n+]3ccccc3)CS[C@H]12)c1csc(N)n1)C(=O)O", "note": "[Ceftazidime]", "values": [{"measurement": "MIC", "setting": "PAO1; [2]", "result": 1, "unit": "µg/mL"}]}, {"molecule": "O=C(O)c1cn(C2CC2)c2cc(N3CCNCC3)c(F)cc2c1=O", "note": "[Ciprofloxacin]", "values": [{"measurement": "MIC", "setting": "PAO1; [2]", "result": 0.031, "unit": "µg/mL"}, {"measurement": "increase in the MIC value after induction", "setting": "[1]", "result": "sixty-fourfold"}, {"measurement": "MIC values after co-induction with CRAMP-34", "setting": "[1]", "result": "significantly reduced"}]}, {"molecule": "CC[C@H](C)CCCCC(=O)N[C@@H](CCN)C(=O)N[C@H](C(=O)N[C@@H](CCN)C(=O)N[C@H]1CCNC(=O)[C@H]([C@@H](C)O)NC(=O)[C@H](CCN)NC(=O)[C@H](CCN)NC(=O)[C@H](CC(C)C)NC(=O)[C@@H](CC(C)C)NC(=O)[C@H](CCN)NC1=O)[C@@H](C)O", "note": "[Colistin] (X1-[Dab]T[Dab][Dab][Dab][dL]L[Dab][Dab]T; lactam 4-C (inferred); N-terminus assumed)", "values": [{"measurement": "MIC", "setting": "PAO1", "result": 0.25, "unit": "µg/mL"}, {"measurement": "increase in the MIC value after induction", "setting": "[1]", "result": "thirty-twofold"}, {"measurement": "MIC values after co-induction with CRAMP-34", "setting": "[1]", "result": "significantly reduced"}]}, {"molecule": "CCN1CCN(c2cc3c(cc2F)c(=O)c(C(=O)O)cn3C2CC2)CC1", "note": "[Enrofloxacin]", "values": [{"measurement": "MIC", "setting": "PAO1; [2]", "result": 0.5, "unit": "µg/mL"}]}, {"molecule": "CNC(C)C1CCC(N)C(OC2C(N)CC(N)C(OC3OCC(C)(O)C(NC)C3O)C2O)O1", "note": "(centres unmarked) [Gentamicin]", "values": [{"measurement": "MIC", "setting": "PAO1; [2]", "result": 0.5, "unit": "µg/mL"}]}, {"molecule": "C[C@@H](O)[C@H]1C(=O)N2C(C(=O)O)=C(SCCN=CN)C[C@H]12", "note": "[Imipenem]", "values": [{"measurement": "MIC", "setting": "PAO1; [2]", "result": 2, "unit": "µg/mL"}]}, {"molecule": "C[C@@H](O)[C@H]1C(=O)N2C(C(=O)O)=C(S[C@@H]3CN[C@H](C(=O)N(C)C)C3)[C@H](C)[C@H]12", "note": "[Meropenem]", "values": [{"measurement": "MIC", "setting": "PAO1; [2]", "result": 0.5, "unit": "µg/mL"}]}, {"molecule": "CCN1CCN(C(=O)N[C@@H](C(=O)N[C@@H]2C(=O)N3[C@@H]2SC(C)(C)[C@@H]3C(=O)O)c2ccccc2)C(=O)C1=O", "note": "[Piperacillin]", "values": [{"measurement": "MIC", "setting": "PAO1; [2]", "result": 2, "unit": "µg/mL"}]}, {"molecule": "CC[C@H]1OC(=O)[C@H](C)[C@@H](O[C@H]2C[C@@](C)(OC)[C@@H](O)[C@H](C)O2)[C@H](C)[C@@H](O[C@@H]2O[C@H](C)C[C@H](N(C)C)[C@H]2O)[C@](C)(O)C[C@@H](C)/C(=N\\OCOCCOC)[C@H](C)[C@@H](O)[C@]1(C)O", "note": "[Roxithromycin]", "values": [{"measurement": "MIC", "setting": "PAO1; [2]", "result": 512, "unit": "µg/mL"}]}, {"molecule": "CN[C@H](CC(C)C)C(=O)N[C@H]1C(=O)N[C@@H](CC(N)=O)C(=O)N[C@H]2C(=O)N[C@H]3C(=O)N[C@H](C(=O)N[C@H](C(=O)O)c4cc(O)cc(O)c4-c4cc3ccc4O)[C@H](O)c3ccc(c(Cl)c3)Oc3cc2cc(c3O[C@@H]2O[C@H](CO)[C@@H](O)[C@H](O)[C@H]2O[C@H]2C[C@](C)(N)[C@H](O)[C@H](C)O2)Oc2ccc(cc2Cl)[C@H]1O", "note": "[Vancomycin]", "values": [{"measurement": "MIC", "setting": "PAO1; Pseudomonas aeruginosa", "result": 1020, "unit": "µg/mL"}]}, {"molecule": "N[C@@H](CCC(=O)O)C(=O)O", "note": "[glutamate]", "values": [{"measurement": "effect of exogenous addition on pre-biofilms (biomass)", "setting": "PAO1 preformed biofilms", "result": "significant effects on eradicating pre-biofilms"}, {"measurement": "reduction in surface-attached biofilm biomass", "setting": "surface-attached biofilm", "result": "~80", "unit": "%"}]}, {"molecule": "O=C(O)CCC(=O)O", "note": "[succinate]", "values": [{"measurement": "effect of exogenous addition on pre-biofilms (biomass)", "setting": "PAO1 preformed biofilms", "result": "significant effects on eradicating pre-biofilms"}, {"measurement": "reduction in surface-attached biofilm biomass", "setting": "surface-attached biofilm", "result": "~80", "unit": "%"}]}, {"molecule": "GLLRKGGEKIGEKLKKIGQKIKNFFQKLVPQPEQ [CRAMP-34]", "values": [{"measurement": "MIC", "setting": "PAO1", "result": 31.25, "unit": "µg/mL"}]}]}
